Source: patent US20040220260A1, “Use of mono-or di-esters of cinnamic acid or of one of its derivatives and vitamin C, as donor of NO” (L'OREAL S.A., priority 2003, published 2004)

What was measured:
[1] = system: normal human keratinocytes; test: cytotoxicity (% diminution of the signal compared with the control); assay type: cell-based; settings: % diminution of signal vs control; not very cytotoxic 0-20%, acceptable up to 40%, not retained >40%
Text: Moreover, the cytotoxicity was expressed as % diminution of the signal compared with the control. A product was considered to be not very cytotoxic from 0-20%, acceptable up to 40% and not retained for values >40%.

[2] = target: T1, inducible NO synthase (NOS2) (Homo sapiens, UniProt P35228); test: screening test of the modulation of induction of NOS2 by normal human keratinocytes (nitrite/nitrate measurement); assay type: cell-based; settings: for % inhibition: normal human keratinocytes, NOS2 induced by cytokines, nitrites and nitrates measured
T1 construct: endogenous in cells; host or cells: normal human keratinocytes (primary culture), induced with interferon-γ and interleukin 1-β
Method: The activity of ascorbyl 2-O-cinnamate on the inducible NO synthase was evaluated in the assay described by Heck et al. (J.B.C., vol. 267, No. 30, 21277-21280, 25 Oct. 1992), a screening test of the modulation of induction of NOS2 by normal human keratinocytes. The objective of this test is, briefly, to evaluate the concentration of nitrate and nitrite after stimulation of the NO-synthase 2.
The test is carried out on a culture of normal human keratinocytes, derived from samples taken. The induction of the inducible NO synthase (NOS2) was caused by the addition of a combination of several cytokines to the culture medium. The product tested was applied at three concentrations varying from […] to 1000 μM.
The product tested was classed in one of the following two categories: inhibitor (I) or donor (D) of NO (nitric oxide) according to its capacity to diminish or increase, respectively, the quantity of nitrites and nitrates produced compared to the control signal […].
The following controls were introduced in the test:
A: positive control (induction of the enzyme): mixtures of interferon-γ (1000 u/ml) and interleukin 1-β (100 u/ml)
In order to determine the activity of the test product the quantity of stable NO reaction products (nitrites and nitrates) is measured with the aid of the “nitric calorimetric assay” kit sold by the Boehringer company under catalogue number 1756.28.
Ascorbyl 2-O-cinnamate was tested at concentrations of 100 μM, 500 μM and 1000 μM in ethanol

T1 sequence (P35228 whole entry): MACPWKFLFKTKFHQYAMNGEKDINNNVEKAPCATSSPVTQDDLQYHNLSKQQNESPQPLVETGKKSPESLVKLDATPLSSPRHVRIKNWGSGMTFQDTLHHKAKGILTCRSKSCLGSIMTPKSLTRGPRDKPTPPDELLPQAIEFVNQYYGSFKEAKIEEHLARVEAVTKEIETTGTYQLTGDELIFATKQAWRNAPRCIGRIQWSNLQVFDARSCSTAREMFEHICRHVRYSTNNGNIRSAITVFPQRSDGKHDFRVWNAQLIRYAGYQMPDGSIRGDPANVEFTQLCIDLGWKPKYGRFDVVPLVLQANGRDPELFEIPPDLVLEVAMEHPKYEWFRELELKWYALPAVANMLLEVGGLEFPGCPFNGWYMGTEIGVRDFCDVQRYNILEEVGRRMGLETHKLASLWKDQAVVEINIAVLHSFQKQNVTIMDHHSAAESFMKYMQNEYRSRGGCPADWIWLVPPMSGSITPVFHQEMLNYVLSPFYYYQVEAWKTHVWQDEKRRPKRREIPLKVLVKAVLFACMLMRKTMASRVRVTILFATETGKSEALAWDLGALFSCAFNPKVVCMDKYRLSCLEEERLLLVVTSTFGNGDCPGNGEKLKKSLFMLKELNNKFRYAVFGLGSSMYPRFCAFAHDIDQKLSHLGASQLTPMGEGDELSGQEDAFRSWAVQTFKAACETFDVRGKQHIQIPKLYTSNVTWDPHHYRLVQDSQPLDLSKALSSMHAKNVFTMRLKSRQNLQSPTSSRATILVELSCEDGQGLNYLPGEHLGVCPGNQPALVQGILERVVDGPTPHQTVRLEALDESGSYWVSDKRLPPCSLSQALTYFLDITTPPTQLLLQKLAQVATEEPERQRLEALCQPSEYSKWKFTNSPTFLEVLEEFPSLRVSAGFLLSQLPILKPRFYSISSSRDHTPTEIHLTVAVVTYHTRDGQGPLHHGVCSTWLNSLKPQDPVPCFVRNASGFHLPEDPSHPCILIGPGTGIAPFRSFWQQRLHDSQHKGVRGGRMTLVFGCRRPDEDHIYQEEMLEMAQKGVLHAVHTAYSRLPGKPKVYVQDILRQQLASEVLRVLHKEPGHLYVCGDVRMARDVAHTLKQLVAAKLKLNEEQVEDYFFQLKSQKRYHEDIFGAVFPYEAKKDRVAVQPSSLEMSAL

Compound: O=C(/C=C/c1ccccc1)OC1=C(O)[C@@H]([C@@H](O)CO)OC1=O [Ascorbyl 2-O-cinnamate, ascorbyl 2-O-cinnamate]
- cytotoxicity [1]: not toxic
- % inhibition ([2]; 100 μM in ethanol): 24.79%
- % inhibition ([2]; 500 μM in ethanol): 53.74%
- % inhibition ([2]; 1000 μM in ethanol): 74.4%
- classification as inhibitor (I) or donor (D) of NO ([2]; according to capacity to diminish or increase the quantity of nitrites and nitrates produced compared to the control signal): NO donor effect
